For data set [1] the following is noted: cited from earlier work.
A short description of data set [2]: Serum pharmacokinetics of Ethinylestradiol and Gestodene during two patch treatment cycles. Conditions: female, human, in vivo, topical or ocular, 0.9 mg, AUC(0-[…]) of ethinyl estradiol (EE), mean. More on the design: species or system women. The text has this:
Arcare MA-24A® is a polyisobutylene based adhesive from Adhesive Research.
The treatment phase includes a period of two menstrual cycles. The first treatment in the first cycle began one day after the volunteers started menstruating in this cycle by application of a patch. A total of three test patches were applied in intervals of 7 days between, such as application at days 1, 8 and 15 of the first cycle—each at different application sites—during each treatment cycle. Each patch was worn for 7 days, then replaced with a new patch to complete a total of 21 days of continuous use. This was followed by a 7-day treatment-free interval before the next treatment period started with a total of three patches applied, each applied with an interval of 7 days. If the patches were lost or became more than 40% detached, a new patch was applied.
The AUC was calculated according to the linear trapezoidal rule.
The sampling points were at the day 18 of the last pre-treatment cycle and days 1, 2, 3, 4, 5, 6, 7, 8, 15, 16, 17, 18, 19, 20, 21 and 22 of cycle 1 as well as days 1 (before application of new patch), 2, 3, 4, 5, 6, 7, 8, 15, 16, 17, 18, 19, 20, 21 and 22 of cycle 2.
After incubation and centrifugation, the resultant precipitate was redissolved with NaOH. The assay has a lower limit of quantification of approx. 250 μg/ml.

For the molecule `C#C[C@]1(O)C=C[C@H]2[C@@H]3CCC4=CC(=O)CC[C@@H]4[C@H]3CC[C@@]21CC` [Gestodene, 13β-Ethyl-17α-ethynyl-17β-hydroxy-4,15-gonadien-3-one], the Maximal plasma levels entry in data set [1] (U.S. Pat. No. 5,376,377, ethylene vinyl acrylate adhesive layer, Gestodene and ethinylestradiol) was “about 0.8 ng/ml”. Besides, the “maximal plasma levels of Gestodene” value in data set [1] (WO 92/07590, transdermal compositions with penetration enhancers) is given as “about 0.9 ng/ml”.

The AUC(0-t) is the area under the concentration-time curve up to a stated or last time point. Low readings indicate less exposure, high ones more exposure. With `C#C[C@]1(O)CC[C@H]2[C@@H]3CCc4cc(O)ccc4[C@H]3CC[C@@]21C` [ethinyl estradiol, Ethinylestradiol], the area under the curve AUC(0-t) in data set [2] (Cycle 1, Week 1, test patch) was 5.3 ng·h/mL; in data set [2] (Cycle 1, Week 3, test patch), 6.1 ng·h/mL; in data set [2] (Cycle 2, Week 1, test patch), 5.1 ng·h/mL; in data set [2] (Cycle 2, Week 3, test patch), 5.8 ng·h/mL.

Source of the values: US8668925B2, “Transdermal delivery of hormones without the need of penetration enhancers” (Bayer Intellectual Property GmbH, priority 2003, dated 2014).
